Assay results: patent publication US20220023289A1, “Application Of Pyrroloquinoline Quinone In Preparation Of Medicament Used For Preventing And Treating Acute Altitude Sickness And Acute Altitude Hypoxia Injury” (priority 2018, published 2022)

Experiments:
[1] = test system: mice exposed to high altitude hypoxia; test: Exhaustive swimming experiment in mice exposed to high altitude hypoxia (6000 m); assay type: in vivo, Kunming mice; conditions: for Exhausted swimming survival time: 7 days
From the text: Select healthy male Kunming mice weight 18-22 g.

[2] = test system: rats exposed to acute altitude hypoxia; test: Protein metabolism in rats exposed to acute altitude hypoxia; assay type: in vivo, Wistar rat
Description: (§1) Select healthy Wistar rats weight 160-200 g, half female and half male. After feeding for 3 days, these Wistar rats are randomly divided into ten groups according to their body weight, each group has 16±2 rats. The groups are divided as follows: five groups of the hypoxic exposure drug test group, respectively, are given 0.91 mg/kg, 1.83 mg/kg, 3.66 mg/kg, 7.31 mg/kg, and 14.63 mg/kg drugs. […] After continuous intragastric administration for 7 days, the animals in the hypoxic exposure group are simultaneously put into the decompression and hypoxia compound experimental chamber, the hatch is closed, and the pressure is reduced at a speed of 10 m/s. After being raised to an altitude of 6000 m and maintained for 8 hours, the speed in 10 m/s drops is reduced to normal altitude, open the hatch, and then take out the animal, collect blood samples (after standing for 1 hour, the supernatant is centrifuged and stored at −20° C.), and liver tissue samples. Detection indicator includes body weight, serum blood glucose, ATP, lactic acid, endothelin, nitric oxide, SOD, CO, MDA related to oxidative stress, and total protein, albumin, triglycerides, total cholesterol, high-density lipoprotein cholesterol, low-density lipoprotein cholesterol, glutamic pyruvic transaminase, total bilirubin, gluamic oxalacetic transaminase, serum urea nitrogen, creatinine, uric acid, lactate dehydrogenase, creatine kinase, α-hydroxybutyrate dehydrogenase; liver ATP, hepatic glycogen. Except that the formal oxygen control animal group is not put into the decompression and hypoxia compound experimental chamber, other experimental conditions and detection indicators are the same.
(§2) Measure blood glucose, total protein, albumin, triglycerides, total cholesterol, high-density lipoprotein cholesterol, low-density lipoprotein cholesterol, glutamic-pyruvic transaminase, total bilirubin, glutamic oxalacetic transaminase, serum urea nitrogen, creatinine, uric acid, lactate dehydrogenase, creatine kinase, α-hydroxybutyrate dehydrogenase, blood homocysteine by using an automatic blood biochemical analyzer.

[3] = test system: rats exposed to acute altitude hypoxia; test: Liver function of rats exposed to acute altitude hypoxia; assay type: in vivo, Wistar rat
Description: as §1, §2

[4] = test system: rats exposed to acute altitude hypoxia; test: Endothelial function (serum endothelin-1, nitric oxide) in rats exposed to acute altitude hypoxia; assay type: in vivo, Wistar rat
From the text: This method uses nitrate reductase specificity reduce NO^3− to NO^2−, and then determine the level of its concentration by displaying shades of color. Operate according to the kit instructions, measure the absorbance of each tube at a wavelength of 550 nm, and then calculate the content of nitric oxide of the sample to be tested according to the formula. To the coated microwells pre-coated with rat endothelin (endothelin-1) capture antibody, add in sequence specimens, standards, and HRP-labeled detection antibody, and then incubate and wash thoroughly. Use a substrate TMB for color development. TMB is converted into blue under the catalysis of peroxidase and converted into the final yellow color under the action of acid. The color intensity is positively correlated with the rat endothelin (endothelin-1) in the sample.

[5] = female rats, hypoxia, 0.91 mg/kg
[6] = female rats, hypoxia, 1.83 mg/kg
[7] = female rats, hypoxia, 3.66 mg/kg
[8] = female rats, hypoxia, 14.63 mg/kg
[9] = female rats, normoxia, 3.66 mg/kg
[10] = male rats exposed to hypoxia, low-dose
[11] = male rats, hypoxia, 14.63 mg/kg
[12] = female rats, hypoxia, 7.31 mg/kg
[13] = female rats after acute hypoxia exposure

With `O=C(O)c1cc(C(=O)O)c2c(n1)C(=O)C(=O)c1cc(C(=O)O)[nH]c1-2` [PQQ, pyrroloquinoline quinone] the “increasing rate of survival time” value ([1]; male mice, 6000 m, 2.64 mg/kg) was 109.05%, the “increasing rate of survival time” value ([1]; male mice, 6000 m, 5.28 mg/kg) was 32.54% and the “increasing rate of survival time” value ([1]; male mice, 6000 m, 10.56 mg/kg) was 49.30%. The “increasing rate of survival time” value ([1]; male mice, 6000 m, 21.12 mg/kg) was 101.47%, the “Exhausted swimming survival time” value ([1]; male mice, 6000 m, 1.32 mg/kg) was 199.21 ± 98.54 min and the “Exhausted swimming survival time” value ([1]; male mice, 6000 m, 2.64 mg/kg) was 273.10 ± 63.07 min. For the same compound, the “Exhausted swimming survival time” value ([1]; male mice, 6000 m, 5.28 mg/kg) was 173.15 ± 116.32 min, the “Exhausted swimming survival time” value ([1]; male mice, 6000 m, 10.56 mg/kg) was 195.04 ± 59.81 min and the “Exhausted swimming survival time” value ([1]; male mice, 6000 m, 21.12 mg/kg) was 263.20 ± 48.27 min. The “time at which mice are completely dead” value ([1]; male mice, 6000 m, each PQQ dose group) was “about 400 minutes”, the “effect on survival time after exhausting swimming / working ability under hypoxia” value ([1]; mice under low oxygen exposure) was “can prolong the survival time of mice after exhausting swimming” and the “effect on serum total protein content” value ([2]; female rats, high-dose) was “the same as the hypoxia model group”. For the same compound, the “albumin (second column)” value [2, 5] was 31.03 ± 0.98 g/L, the “albumin (second column)” value [2, 6] was 29.67 ± 0.98 g/L and the “albumin (second column)” value [2, 7] was 29.33 ± 0.62 g/L. The “albumin (second column)” value [2, 8] was 30.16 ± 1.40 g/L, the “albumin (second column)” value ([2]; female rats, hypoxia, 7.3 l mg/kg) was 31.49 ± 0.70 g/L and the “effect on total serum protein content” value ([2]; female rats, normoxia) was “no significant effects”. For the same compound, the “albumin (second column)” value [2, 9] was 30.87 ± 1.41 g/L, the “effect on serum albumin” value ([2]; hypoxia exposed female rats (PQQ low-dose)) was “can reduce the effect of serum albumin in female rats increase caused by hypoxic exposure” and the “effect on serum total protein content” value ([2]; hypoxia exposed female rats, low-dose) was “can slightly reduce”. The “effect on serum albumin content” value [2, 10] was “can reduce the effect of hypoxia exposure on the increase in serum albumin content”, the “effect on serum total protein content” value [2, 10] was “can slightly reduce” and the “effect on serum total protein content” value ([2]; male rats, high-dose) was “the same as that of the hypoxia model group”. The “albumin (second column)” value ([2]; male rats, hypoxia, 0.91 mg/kg) was 22.55 ± 2.53 g/L, the “albumin (second column)” value ([2]; male rats, hypoxia, 1.83 mg/kg) was 26.14 ± 2.04 g/L and the “albumin (second column)” value ([2]; male rats, hypoxia, 3.66 mg/kg) was 28.60 ± 1.12 g/L. The “albumin (second column)” value ([2]; male rats, hypoxia, 7.31 mg/kg) was 28.06 ± 1.31 g/L, the “albumin (second column)” value [2, 11] was 28.38 ± 0.90 g/L and the “effect on serum glutamic-pyruvic transaminase and glutamic oxalacetic transaminase activities” value ([3]; acute hypoxia exposed female rats) was “has been not found”. For the same compound, the Glutamic oxalacetic transaminase [3, 5] was 80.71 ± 12.49 U, the Glutamic-pyruvic transaminase [3, 5] was 29.86 ± 4.30 U and the Glutamic oxalacetic transaminase [3, 6] was 84.71 ± 18.97 U. The Glutamic-pyruvic transaminase [3, 6] was 27.86 ± 6.28 U, the Glutamic oxalacetic transaminase [3, 7] was 82.29 ± 17.75 U and the Glutamic-pyruvic transaminase [3, 7] was 32.57 ± 5.35 U. It also gave a Glutamic oxalacetic transaminase [3, 12] of 79.29 ± 16.06 U, a Glutamic-pyruvic transaminase [3, 12] of 32.57 ± 6.37 U and a Glutamic oxalacetic transaminase [3, 8] of 83.00 ± 20.18 U. The Glutamic-pyruvic transaminase [3, 8] was 36.57 ± 8.52 U, the “effect on aspartate aminotransferase activity” value ([3]; female rats, normoxia) was “slightly increasing” and the “effect on glutamic-pyruvic transaminase” value ([3]; female rats, normoxia) was “no significant effect”. The Glutamic oxalacetic transaminase [3, 9] was 120.29 ± 11.90 U, the Glutamic-pyruvic transaminase [3, 9] was 37.14 ± 4.45 U and the “effect on serum glutamic-pyruvic transaminase, glutamic oxalacetic transaminase and total bilirubin” value ([3]; male rats exposed to acute hypoxia) was “is not found”. It also gave a Glutamic oxalacetic transaminase ([3]; male rats, hypoxia, 0.91 mg/kg) of 79.17 ± 15.66 U, a Glutamic-pyruvic transaminase ([3]; male rats, hypoxia, 0.91 mg/kg) of 36.63 ± 8.30 U and a Total bilirubin ([3]; male rats, hypoxia, 0.91 mg/kg) of 0.51 ± 0.12 µmol/L. For the same compound, the Glutamic oxalacetic transaminase ([3]; male rats, hypoxia, 1.83 mg/kg) was 85.80 ± 13.80 U, the Glutamic-pyruvic transaminase ([3]; male rats, hypoxia, 1.83 mg/kg) was 40.63 ± 5.18 U and the Total bilirubin ([3]; male rats, hypoxia, 1.83 mg/kg) was 0.59 ± 0.12 µmol/L. For the same compound, the Glutamic oxalacetic transaminase ([3]; male rats, hypoxia, 3.66 mg/kg) was 99.00 ± 15.52 U, the Glutamic-pyruvic transaminase ([3]; male rats, hypoxia, 3.66 mg/kg) was 42.50 ± 4.93 U and the Total bilirubin ([3]; male rats, hypoxia, 3.66 mg/kg) was 0.60 ± 0.15 µmol/L. It also gave a Glutamic oxalacetic transaminase ([3]; male rats, hypoxia, 7.31 mg/kg) of 94.40 ± 12.28 U, a Glutamic-pyruvic transaminase ([3]; male rats, hypoxia, 7.31 mg/kg) of 43.13 ± 8.92 U and a Total bilirubin ([3]; male rats, hypoxia, 7.31 mg/kg) of 0.46 ± 0.15 µmol/L. It also gave a Glutamic oxalacetic transaminase [3, 11] of 109.00 ± 11.68 U, a Glutamic-pyruvic transaminase [3, 11] of 48.25 ± 8.86 U and a Total bilirubin [3, 11] of 0.53 ± 0.15 µmol/L. The “effect on nitric oxide” value [4, 13] was “no significant effect”, the “effect on serum endothelin-1 content” value [4, 13] was “can increase” and the Endothelin-1 [4, 5] was 64.75 ± 2.72 ng/mL. The Nitric oxide [4, 5] was 3.50 ± 1.24 µmol/L, the Endothelin-1 [4, 6] was 63.21 ± 4.33 ng/mL and the Nitric oxide [4, 6] was 4.47 ± 1.35 µmol/L. The Endothelin-1 [4, 7] was 68.58 ± 5.38 ng/mL, the Nitric oxide [4, 7] was 6.19 ± 2.06 µmol/L and the Endothelin-1 [4, 12] was 65.44 ± 14.06 ng/mL. For the same compound, the Nitric oxide [4, 12] was 5.92 ± 2.31 µmol/L, the Endothelin-1 [4, 8] was 65.26 ± 6.60 ng/mL and the Nitric oxide [4, 8] was 4.62 ± 3.25 µmol/L. For the same compound, the “effect on nitric oxide content” value ([4]; female rats, normoxia) was “no significant effects”, the “effect on serum endothelin-1 content” value ([4]; female rats, normoxia) was “can reduce” and the Endothelin-1 [4, 9] was 47.50 ± 7.31 ng/mL. The Nitric oxide [4, 9] was 5.01 ± 1.57 µmol/L, the “effect on serum endothelin-1 and nitric oxide” value ([4]; hypoxia exposed male rats) was “no significant effects” and the Endothelin-1 ([4]; male rats, hypoxia, 0.91 mg/kg) was 45.35 ± 4.24 ng/mL. For the same compound, the Nitric oxide ([4]; male rats, hypoxia, 0.91 mg/kg) was 5.28 ± 0.71 µmol/L, the Endothelin-1 ([4]; male rats, hypoxia, 1.83 mg/kg) was 42.59 ± 1.45 ng/mL and the Nitric oxide ([4]; male rats, hypoxia, 1.83 mg/kg) was 5.15 ± 2.11 µmol/L. The Endothelin-1 ([4]; male rats, hypoxia, 3.66 mg/kg) was 48.14 ± 3.13 ng/mL, the Nitric oxide ([4]; male rats, hypoxia, 3.66 mg/kg) was 5.35 ± 1.35 µmol/L and the Endothelin-1 ([4]; male rats, hypoxia, 7.31 mg/kg) was 43.60 ± 0.94 ng/mL. It also gave a Nitric oxide ([4]; male rats, hypoxia, 7.31 mg/kg) of 6.20 ± 2.49 µmol/L, an Endothelin-1 [4, 11] of 42.45 ± 3.84 ng/mL and a Nitric oxide [4, 11] of 6.46 ± 1.44 µmol/L.
